Assay results from article PMC10246557, “Kinetic and inhibition studies on human Jumonji-C (JmjC) domain-containing protein 5” (RSC Chemical Biology, 2023).
Where “and” joins values, the source holds several entries; their conditions need not be identical. Equal values may be shown once. Read-outs that look alike come from different tables or passages of the source.

Columns and labels:
human JMJD5 [1] = biological target: T1, human JMJD5 (Homo sapiens, UniProt Q8N371); experiment: SPE-MS JMJD5 inhibition assay; type: biochemical; conditions: for IC50 / IC50 JMJD5: 2OG 2.0 μM, Fe(II) 2.0 μM, LAA 100 μM, RPS6_128–148 2.0 μM
T1 construct: made in house; host or cells: Escherichia coli BL21(DE3)
Method: Solutions of the small-molecules (100% DMSO) were dry dispensed across 384 well polypropylene V-bottom assay microplates (Greiner) in an approximately three-fold and 11-point dilution series (100 μM inhibitor top concentration; the final DMSO assay concentration was kept constant at 0.5%v/v) using an ECHO 550 acoustic dispenser (Labcyte). […] Each reaction was performed in technical duplicates in adjacent wells of the assay plates; additionally, assays were performed in two independent duplicates on different days using different inhibitor solutions.
The Enzyme Mixture (25 μL per well), containing 0.3 μM His6-thioredoxin-tagged JMJD5 in buffer (50 mM MOPS, pH 7.5), was dispensed across the inhibitor-containing 384-well plates with a multidrop dispenser (ThermoFischer Scientific) at 20 °C under an ambient atmosphere. The plates were subsequently centrifuged (1000 rpm, 5 s) and incubated for 15 min at 20 °C. […] The plates were centrifuged (1000 rpm, 5 s) and, after incubating for 30 min, the enzyme reaction was stopped by the addition of 10%v/v aqueous formic acid (5 μL per well). The plates were then centrifuged (1000 rpm, 30 s) and analyzed by MS.
Z′-Factors were calculated according to the cited literature using Microsoft Excel.[61]

human JMJD5 [2] = biological target: T1, human JMJD5; experiment: SPE-MS JMJD5 turnover and kinetic assay (RPS6_128–148 hydroxylation); type: biochemical; conditions: for JMJD5 (%): RPS6_128–148 hydroxylation with the compound as cosubstrate: absence of 2OG, JMJD5 0.15 μM, 2OG derivative 400 μM, Fe(II) 20 μM, RPS6_128–148 2.0 μM
Method: JMJD5 turnover assays for time course and kinetic experiments were performed in 96-well polypropylene assay plates (Greiner) with either […] total reaction volume using the concentrations given in the manuscript or ESI, ^† and JMJD5-catalysed substrate hydroxylation was directly monitored using SPE-MS. […] Assay samples were aspirated under vacuum for 0.6 s and loaded onto a C4 solid phase extraction (SPE) cartridge. After loading, the C4 SPE cartridge was washed with 0.1%v/v aqueous formic acid to remove non-volatile buffer salts (5.5 s, 1.5 mL min^−1). The peptide was eluted from the SPE cartridge with 0.1%v/v aqueous formic acid in 80/20v/v acetonitrile/water into the mass spectrometer (5.5 s, 1.5 mL min^−1) and the SPE cartridge re-equilibrated with 0.1%v/v aqueous formic acid (0.5 s, 1.5 mL min^−1). The mass spectrometer was operated using the MassHunter Workstation B.08.00 software (Agilent), the mass spectrometer parameters were: capillary voltage (4000 V), nozzle voltage (1000 V), fragmentor voltage (365 V), gas temperature (280 °C), gas flow (13 L min^−1), sheath gas temperature (350 °C), sheath gas flow (12 L min^−1). […] Data were exported into Microsoft Excel and used to calculate the % conversion of the hydroxylation reaction using the equation: % conversion = 100 × (integral product peptide)/(integral substrate peptide + integral product peptide).
parameters (continues on the following two pages). Maximum velocities (vapp ) and Michaelis constants (Kapp)
of JMJD5 were determined in independent triplicates, monitoring the JMJD5-catalyzed hydroxylation of the
SPE-MS, as described (Experimental Section).
20 °C). Measurement times were normalized to the first sample injection analyzed after the addition of JMJD5 to
shown as the mean of three independent runs (n = 3; mean ± standard deviation, SD).
hexahydrate (20 μM, (NH4)2Fe(SO4)2·6H2O); and (b) hydroxylation rates used to determine kinetic parameters of
(1 picture or pasted object on this page, not shown here)
Maximum velocities (vapp ) and
Michaelis constants (Kapp) of JMJD5 were determined in independent triplicates for (1R)-3-
(carboxycarbonyl)cyclopentane-1-carboxylic acid (14), monitoring the JMJD5-catalyzed hydroxylation of the
as described (Experimental Section).
pH 7.5, 20 °C). Measurement times were normalized to the first sample injection analyzed after the addition of
(§1) Data are shown as the mean of three independent runs (n = 3; mean ± SD).
to determine kinetic parameters of JMJD5 for 14.

human KDM4E [3] = biological target: T2, human KDM4E (Homo sapiens, UniProt B2RXH2); experiment: KDM4E SPE-MS inhibition assay; type: biochemical; conditions: KDM4E 0.15 μM, peptide 10.0 μM, LAA 100 μM, FAS 10 μM, 2OG 10 μM
T2 sequence (B2RXH2 1-506): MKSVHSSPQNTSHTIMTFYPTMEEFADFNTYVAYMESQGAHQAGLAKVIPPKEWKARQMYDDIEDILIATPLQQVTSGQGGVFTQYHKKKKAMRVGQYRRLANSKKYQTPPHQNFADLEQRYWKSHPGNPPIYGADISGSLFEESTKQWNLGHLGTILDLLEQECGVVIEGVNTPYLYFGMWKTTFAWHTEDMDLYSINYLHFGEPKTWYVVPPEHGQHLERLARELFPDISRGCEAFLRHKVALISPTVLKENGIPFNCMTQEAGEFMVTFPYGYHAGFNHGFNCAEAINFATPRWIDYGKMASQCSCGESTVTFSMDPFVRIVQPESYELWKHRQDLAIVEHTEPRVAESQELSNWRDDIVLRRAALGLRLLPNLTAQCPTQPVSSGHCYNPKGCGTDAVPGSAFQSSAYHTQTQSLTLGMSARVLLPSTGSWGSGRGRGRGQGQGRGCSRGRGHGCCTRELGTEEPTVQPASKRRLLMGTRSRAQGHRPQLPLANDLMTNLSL
Method: KDM4E turnover and inhibition assays were performed as reported using recombinant human KDM4E and a histone 3 K9(me3) derivative (i.e. […](me3)STGGIA)[41] as substrate.[95] […]

human KDM4E [4] = biological target: T2, human KDM4E; experiment: KDM4E SPE-MS turnover and kinetic assay (H3 K9(me3) peptide demethylation); type: biochemical; conditions: absence of 2OG; KDM4E 0.15 μM, 2OG derivative 330 μM, Fe(II) 50 μM, ARTAQTARK(me3)STGGIA 10.0 μM
Method: KDM4E turnover and inhibition assays were performed as reported using recombinant human KDM4E and a histone 3 K9(me3) derivative (i.e. […](me3)STGGIA)[41] as substrate.[95]
Supplementary Figure S3. Rates of KDM4E-catalyzed Nε-trimethyl lysine demethylations of a histone 3- […]
Maximum velocities (vapp ) and Michaelis […]
catalyzed Nε-trimethyl lysine demethylation of the histone 3 K9(me3)-derived peptide […]
(me3)STGGIA2 by SPE-MS as described;3 note that mono-, di-, and tri-demethylated product […]
buffer (50 mM MES, pH 7.0, 20 °C). Measurement times were normalized to the first sample injection analyzed […]
as §1
(a) Time course of the KDM4E-catalyzed Nε-trimethyl lysine demethylation reaction of the […]

human AspH = conditions: absence of 2OG; AspH 0.1 μM, 2OG derivative 330 μM, Fe(II) 50 μM, hFX-CP101–119 2.0 μM; cited from earlier work
human FIH = conditions: absence of 2OG; FIH 0.15 μM, 2OG derivative 330 μM, Fe(II) 50 μM, HIF-1α788–822 5.0 μM; cited from earlier work
[5] = JMJD5 0.15 μM, read-out: IC50 JMJD5

T1 sequence (Q8N371 whole entry): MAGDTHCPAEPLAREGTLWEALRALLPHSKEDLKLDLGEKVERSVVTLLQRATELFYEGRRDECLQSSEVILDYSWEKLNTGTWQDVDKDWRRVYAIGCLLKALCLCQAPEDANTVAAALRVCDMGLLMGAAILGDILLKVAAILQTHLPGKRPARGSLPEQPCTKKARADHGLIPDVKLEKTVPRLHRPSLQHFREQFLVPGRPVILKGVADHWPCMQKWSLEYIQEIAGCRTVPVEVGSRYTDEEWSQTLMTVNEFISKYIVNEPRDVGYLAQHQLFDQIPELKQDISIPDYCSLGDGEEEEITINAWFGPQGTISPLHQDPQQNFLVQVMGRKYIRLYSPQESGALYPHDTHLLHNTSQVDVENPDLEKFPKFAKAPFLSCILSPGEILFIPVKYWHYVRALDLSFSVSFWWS

Row | Compound | IC50 (human JMJD5 [1]; [5]) [µM] | JMJD5 (%): RPS6_128–148 hydroxylation with the compound as cosubstrate (human JMJD5 [2]) | KDM4E (%): substrate demethylation with the compound as cosubstrate (human KDM4E [4]) | AspH (%): substrate hydroxylation with the compound as cosubstrate (human AspH) [%] | FIH (%): substrate hydroxylation with the compound as cosubstrate (human FIH) | other results
1 | O=C(O)CCNc1cc(N2CCc3ccccc3CC2)nc(-c2ccccn2)n1 [GSK-J1, reference compound] | ~4.4 | – | – | – | – | –
2 | CC1(C)c2ccccc2-c2ccc(CC(CC(=O)O)C(=O)C(=O)O)cc21 (stereo not shown) [Entry 7] | – | < 1% | < 1% | < 1 | < 1% | IC50 (human KDM4E [3]): 6 to 7 µM and ~6.1 µM
3 | O=C(O)CNC(=O)C(=O)O [C00025] | 0.15 ± 0.02 | – | – | – | – | –
4 | O=c1c2ccccc2[se]n1-c1ccccc1 [ebselen, reference compound] | ~0.7 | – | – | – | – | Hill coefficient of the JMJD5 inhibition curve (human JMJD5 [1]): ≥ 2
5 | CC(CC(=O)C(=O)O)C(=O)O (stereo not shown) [Entry 8] | – | < 1% | < 1% | < 1 | < 1% | JMJD5-catalyzed RPS6_128–148 hydroxylation, time course (human JMJD5 [2]; after 50 min, 10 μM cosubstrate, 0.15 μM JMJD5, 10 μM Fe(II), 2.0 μM RPS6_128–148): ~30%; IC50 (human KDM4E [3]): 6 to 7 µM and ~6.6 µM
6 | O=C(O)CNC(=O)C(=O)O [NOG, N-oxalylglycine, reference compound] | ~0.2 | – | – | – | – | –
7 | 3-(4-methoxybenzyl)-2OG [2OG derivative 6] | > 50 | ~ 10% | ~ 5% | < 1 | < 1% | IC50 (human KDM4E [3]): > 50 µM
8 | O=C(O)c1ccc(O)c2ncccc12 [C00029] | – | – | – | – | – | IC50 (human JMJD5 [1]; IC50 JMJD5, JMJD5 0.15 μM): 2.6 ± 0.1 µM
9 | CN(C)NC(=O)CCC(=O)O [daminozide, reference compound] | – | – | – | – | – | IC50 (human JMJD5 [1]; IC50 JMJD5, JMJD5 0.15 μM): > 100 µM
10 | CN(C)CCCNC(=O)c1ccc(-c2cc(O)c3ncccc3c2)cc1 [ML324, reference compound] | – | – | – | – | – | Hill coefficient of the JMJD5 inhibition curve (human JMJD5 [1]): ≥ 2
11 | Cc1nc(C(=O)NCC(=O)O)c(O)c2ccc(Oc3ccccc3)cc12 [roxadustat, reference compound] | – | – | – | – | – | IC50 JMJD5 (human JMJD5 [1]; JMJD5 0.15 μM): does not inhibit JMJD5 at substantial levels
12 | 3-ethyl-2OG [2OG derivative 2] | > 20 | < 1% | < 1% | < 1 | ~ 2% | IC50 (human KDM4E [3]): > 50 µM
13 | O=C(O)CNC(=O)c1c(O)c2ccccc2n(OCC2CC2)c1=O [C00037, reference compound] | – | – | – | – | – | IC50 (human JMJD5 [1]; IC50 JMJD5, JMJD5 0.15 μM): 37.2 ± 6 µM
14 | 4-propyl-2OG [2OG derivative 11] | > 50 | ~ 10% | < 1% | < 1 | ~ 5% | IC50 (human KDM4E [3]): > 50 µM
15 | O=C(O)C(=O)N[C@H](Cc1ccccc1)C(=O)O [NOFD, N-Oxalyl-D-phenylalanine, reference compound] | – | – | – | – | – | IC50 JMJD5 (human JMJD5 [1]; JMJD5 0.15 μM): does not inhibit JMJD5 in the concentration range tested
16 | 3-(9,9-dimethyl-9H-fluoren-2-yl)methyl-2OG [2OG derivative 7] | > 50 | < 1% | < 1% | < 1 | < 1% | –
17 | O=C(O)C(=O)CC(CCCc1ccccc1)C(=O)O (stereo not shown) [C00008] | – | <1% | <1% | <1 | <1% | –
18 | O=C(O)CC(CCCc1ccccc1)C(=O)C(=O)O (stereo not shown) [C00009] | – | <1% | ∼2% | <1 | <1% | –
19 | CC(C)(C)CCC(CC(=O)C(=O)O)C(=O)O (racemic) [Entry 17] | – | < 1% | < 1% | < 1 | < 1% | –
20 | O=C(O)CC(Cc1ccc(OC(F)(F)F)cc1)C(=O)C(=O)O (stereo not shown) [C00011] | – | <1% | <1% | <1 | <1% | –

Continued, in another order:

Row | IC50 (human JMJD5 [1]; [5]) [µM] | Compound | JMJD5 (%): RPS6_128–148 hydroxylation with the compound as cosubstrate (human JMJD5 [2]) | KDM4E (%): substrate demethylation with the compound as cosubstrate (human KDM4E [4]) | AspH (%): substrate hydroxylation with the compound as cosubstrate (human AspH) [%] | FIH (%): substrate hydroxylation with the compound as cosubstrate (human FIH) | other results
21 | 0.69 ± 0.15 | O=c1c2ccccc2[se]n1-c1ccccc1 [C00031] | – | – | – | – | –
22 | 29.5 ± 1.6 | O=c1c(-n2ccnn2)c[nH]n1-c1cc(N2CCOCC2)ncn1 [C00039, reference compound] | – | – | – | – | –
23 | 4.4 ± 0.5 | O=C(O)CCNc1cc(N2CCc3ccccc3CC2)nc(-c2ccccn2)n1 [C00036] | – | – | – | – | –
24 | 17.8 ± 5.6 | O=C(O)CNC(=O)c1c(O)c2ccccc2n(Cc2ccccc2)c1=O [C00035, reference compound] | – | – | – | – | –
25 | 3 ± 0.5 | CN(C)CCCNC(=O)c1ccc(-c2cc(O)c3ncccc3c2)cc1 [C00034] | – | – | – | – | –
26 | > 100 | O=C(O)C(=O)N[C@H](Cc1ccccc1)C(=O)O [C00030] | – | – | – | – | –
